Experimental data as given in ChEMBL document CHEMBL1201862, “PubChem BioAssay data set” (2004).
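Method: 48-hour compound exposure of cells in 96-well plates, five concentrations, linear interpolation of endpoints. GI50 is the concentration that inhibits growth by half.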 The source made the active and inactive calls. Rule as the data show it: active = GI50 up to about 1.1 µM and inactive = higher.

Experiments:
Experiment in all cases: DTP human tumour cell line panel, 48 h
786-0 = test system: 786-0
A498 = test system: A498
A549 = test system: A549
ACHN = test system: ACHN
CAKI-1 = test system: CAKI-1
CCRF-CEM = test system: CCRF-CEM
COLO 205 = test system: COLO 205
DU-145 = test system: DU-145
EKVX = test system: EKVX
HCC 2998 = test system: HCC 2998
HCT-116 = test system: HCT-116
HCT-15 = test system: HCT-15
HL-60 = test system: HL-60
HOP-62 = test system: HOP-62
HT-29 = test system: HT-29
Hs-578T = test system: Hs-578T
IGROV-1 = test system: IGROV-1
K562 = test system: K562
KM12 = test system: KM12
LOX IMVI = test system: LOX IMVI
M14 = test system: M14
MDA-MB-231 = test system: MDA-MB-231
MDA-MB-435 = test system: MDA-MB-435
MDA-N = test system: MDA-N
MOLT-4 = test system: MOLT-4
Malme-3M = test system: Malme-3M
NCI-H226 = test system: NCI-H226
NCI-H23 = test system: NCI-H23
NCI-H460 = test system: NCI-H460
NCI-H522 = test system: NCI-H522
NCI/ADR-RES = test system: NCI/ADR-RES
OVCAR-3 = test system: OVCAR-3
OVCAR-4 = test system: OVCAR-4
OVCAR-5 = test system: OVCAR-5
PC-3 = test system: PC-3
RPMI-8226 = test system: RPMI-8226
RXF 393 = test system: RXF 393
SF-268 = test system: SF-268
SF-295 = test system: SF-295
SF-539 = test system: SF-539
SK-MEL-28 = test system: SK-MEL-28
SK-MEL-2 = test system: SK-MEL-2
SK-MEL-5 = test system: SK-MEL-5
SK-OV-3 = test system: SK-OV-3
SN12C = test system: SN12C
SNB-19 = test system: SNB-19
SNB-75 = test system: SNB-75
SR = test system: SR
SW-620 = test system: SW-620
T47D = test system: T47D
TK-10 = test system: TK-10
UACC-257 = test system: UACC-257
UACC-62 = test system: UACC-62
UO-31 = test system: UO-31
HOP-92 = test system: HOP-92
MCF7 = test system: MCF7
OVCAR-8 = test system: OVCAR-8
U-251 = test system: U-251

`COc1cc2nn(-c3ccccc3)nc2c2nonc12` was tested, and the GI50 (786-0) was 91.6 µM (inactive), the GI50 (A498) was > 100 µM (inactive) and the GI50 (A549) was > 100 µM (inactive). The GI50 (ACHN) was > 100 µM (inactive), the GI50 (CAKI-1) was > 100 µM (inactive) and the GI50 (CCRF-CEM) was > 100 µM (inactive). The GI50 (COLO 205) was > 100 µM (inactive), the GI50 (DU-145) was > 100 µM (inactive) and the GI50 (EKVX) was > 100 µM (inactive). The GI50 (HCC 2998) was > 100 µM (inactive), the GI50 (HCT-116) was 41 µM (inactive) and the GI50 (HCT-15) was > 100 µM. For the same molecule, the GI50 (HL-60) was > 100 µM (inactive), the GI50 (HOP-62) was > 100 µM (inactive) and the GI50 (HT-29) was > 100 µM (inactive). For the same molecule, the GI50 (Hs-578T) was 77.3 µM (inactive), the GI50 (IGROV-1) was > 100 µM (inactive) and the GI50 (K562) was > 100 µM (inactive). The GI50 (KM12) was > 100 µM (inactive), the GI50 (LOX IMVI) was 38.8 µM (inactive) and the GI50 (M14) was > 100 µM (inactive). For the same molecule, the GI50 (MDA-MB-231) was > 100 µM (inactive), the GI50 (MDA-MB-435) was > 100 µM (inactive) and the GI50 (MDA-N) was > 100 µM (inactive). The GI50 (MOLT-4) was > 100 µM (inactive), the GI50 (Malme-3M) was > 100 µM (inactive) and the GI50 (NCI-H226) was > 100 µM (inactive). The GI50 (NCI-H23) was > 100 µM (inactive), the GI50 (NCI-H460) was > 100 µM (inactive) and the GI50 (NCI-H522) was > 100 µM (inactive). For the same molecule, the GI50 (NCI/ADR-RES) was > 100 µM (inactive), the GI50 (OVCAR-3) was > 100 µM (inactive) and the GI50 (OVCAR-4) was 95.9 µM (inactive). The GI50 (OVCAR-5) was > 100 µM (inactive), the GI50 (PC-3) was > 100 µM (inactive) and the GI50 (RPMI-8226) was > 100 µM (inactive). For the same molecule, the GI50 (RXF 393) was > 100 µM (inactive), the GI50 (SF-268) was > 100 µM (inactive) and the GI50 (SF-295) was > 100 µM (inactive). For the same molecule, the GI50 (SF-539) was 87.5 µM (inactive), the GI50 (SK-MEL-28) was > 100 µM (inactive) and the GI50 (SK-MEL-2) was > 100 µM (inactive). The GI50 (SK-MEL-5) was > 100 µM (inactive), the GI50 (SK-OV-3) was > 100 µM (inactive) and the GI50 (SN12C) was > 100 µM (inactive). The GI50 (SNB-19) was > 100 µM (inactive), the GI50 (SNB-75) was > 100 µM (inactive) and the GI50 (SR) was > 100 µM (inactive). For the same molecule, the GI50 (SW-620) was > 100 µM (inactive), the GI50 (T47D) was > 100 µM (inactive) and the GI50 (TK-10) was > 100 µM (inactive). For the same molecule, the GI50 (UACC-257) was > 100 µM (inactive), the GI50 (UACC-62) was > 100 µM (inactive) and the GI50 (UO-31) was > 100 µM (inactive).

In the case of `C/C(=N\NC(=O)c1ccncc1)c1cccc(F)c1`, the GI50 (786-0) is reported as > 10 µM (inactive), the GI50 (A498) is reported as > 10 µM (inactive) and the GI50 (A549) is reported as > 10 µM (inactive). For the same molecule, the GI50 (ACHN) was > 10 µM (inactive), the GI50 (CAKI-1) was > 10 µM (inactive) and the GI50 (CCRF-CEM) was > 10 µM (inactive). The GI50 (COLO 205) was > 10 µM (inactive), the GI50 (HCC 2998) was > 10 µM (inactive) and the GI50 (HCT-116) was > 10 µM (inactive). The GI50 (HCT-15) was > 10 µM, the GI50 (HL-60) was > 10 µM (inactive) and the GI50 (HOP-62) was > 10 µM (inactive). The GI50 (HOP-92) was > 10 µM (inactive), the GI50 (IGROV-1) was > 10 µM (inactive) and the GI50 (K562) was > 10 µM (inactive). For the same molecule, the GI50 (KM12) was > 10 µM (inactive), the GI50 (LOX IMVI) was > 10 µM (inactive) and the GI50 (M14) was > 10 µM (inactive). For the same molecule, the GI50 (MCF7) was > 10 µM (inactive), the GI50 (MDA-N) was > 10 µM (inactive) and the GI50 (MOLT-4) was > 10 µM (inactive). The GI50 (Malme-3M) was > 10 µM (inactive), the GI50 (NCI-H226) was > 10 µM (inactive) and the GI50 (NCI-H23) was > 10 µM (inactive). The GI50 (NCI-H460) was > 10 µM (inactive), the GI50 (NCI/ADR-RES) was > 10 µM (inactive) and the GI50 (OVCAR-3) was > 10 µM (inactive). For the same molecule, the GI50 (OVCAR-5) was > 10 µM (inactive), the GI50 (OVCAR-8) was > 10 µM (inactive) and the GI50 (PC-3) was > 10 µM (inactive). The GI50 (RPMI-8226) was > 10 µM (inactive), the GI50 (RXF 393) was > 10 µM (inactive) and the GI50 (SF-268) was > 10 µM (inactive). The GI50 (SF-295) was > 10 µM (inactive), the GI50 (SF-539) was > 10 µM (inactive) and the GI50 (SK-MEL-28) was > 10 µM (inactive). The GI50 (SK-MEL-2) was > 10 µM (inactive), the GI50 (SK-MEL-5) was > 10 µM (inactive) and the GI50 (SK-OV-3) was > 10 µM (inactive). The GI50 (SN12C) was > 10 µM (inactive), the GI50 (SNB-19) was > 10 µM (inactive) and the GI50 (SNB-75) was > 10 µM (inactive). The GI50 (SR) was > 10 µM (inactive), the GI50 (SW-620) was > 10 µM (inactive) and the GI50 (T47D) was > 10 µM (inactive). For the same molecule, the GI50 (TK-10) was > 10 µM (inactive), the GI50 (U-251) was > 10 µM (inactive) and the GI50 (UO-31) was > 10 µM (inactive).

For `COc1cc(OC)cc(Oc2nc3cc(N)cc(N)c3nc2-c2ccccc2)c1`, the GI50 (786-0) was 2.19 µM (inactive), the GI50 (A498) was 1.95 µM (inactive) and the GI50 (ACHN) was 4.25 µM (inactive). The GI50 (CAKI-1) was 4.19 µM (inactive), the GI50 (DU-145) was 4.52 µM (inactive) and the GI50 (PC-3) was 3.85 µM (inactive). The GI50 (RPMI-8226) was 2.86 µM (inactive), the GI50 (RXF 393) was 1.02 µM (active) and the GI50 (SN12C) was 4.4 µM (inactive). The GI50 (TK-10) was 1.73 µM (inactive) and the GI50 (UO-31) was 3.44 µM (inactive).
